Measurements taken from patent US20110171285A1, “Design of Fibrinogen and Fibrinogen Derived Products with Reduced Bacterial Binding by Using Modified Sequences of Fibrinogen Chains” (priority 2009, published 2011).
Ends that are not written are not given here.

Key:
[1] = biological target: T1, rClfA229-545 (Staphylococcus aureus, UniProt Q53653); experiment: Isothermal titration calorimetry of Fg γ-peptide binding to rClfA229-545
T1 construct: 6xHis; made in house; host or cells: E. coli
T1 sequence (Q53653 229-545): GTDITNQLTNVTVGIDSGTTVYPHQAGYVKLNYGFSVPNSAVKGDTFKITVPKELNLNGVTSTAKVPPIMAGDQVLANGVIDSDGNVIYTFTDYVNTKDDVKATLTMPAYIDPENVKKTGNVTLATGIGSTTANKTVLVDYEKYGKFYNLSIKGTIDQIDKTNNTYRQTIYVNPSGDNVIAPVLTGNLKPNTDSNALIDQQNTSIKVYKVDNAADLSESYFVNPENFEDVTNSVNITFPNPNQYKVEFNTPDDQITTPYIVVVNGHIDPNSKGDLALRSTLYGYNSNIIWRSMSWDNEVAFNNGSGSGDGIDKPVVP
Protocol: Peptide 0.6-0.9 mM was injected into a cell with rClfA229-545 in a VP-ITC (MicroCal Inc.). The resulting data was analyzed using Origin 5.0 from MicroCal using a single binding site model.

[2] = biological target: ClfA229-545 (Staphylococcus aureus, UniProt Q53653); conditions: 1 μg Fg/well, varying concentrations of ClfA229-545, read at 405 nm (FIG. 6)
Protocol: About 3 mg lyophilized salmon Fg (batch “A”) was dissolved into 3 mg/ml in PBS. Human and salmon Fg was coated onto 4HBX microtiter plates (1 μg/well) at 4° C. over-night in Dulbecco's PBS without MgCl2 nor CaCl2 ions). The plate was blocked for 1 hour room temperature (RT) using 5% bovine serum albumin (BSA) in TBS-T. Recombinant His-tagged ClfA229-545 was added in varying concentrations to test for binding to Fg using TBS solution for 1 hour at room temperature. Bound ClfA was detected with anti-ClfA rabbit antibodies (dil 1:2000) in TBS-T with 1% BSA followed by goat anti-rabbit secondary antibodies (dil 1:2000) conjugated to alkaline phosphatase using the same buffer. Color detection was read after 30-60 min at 405 nm in a microtiter plate reader using phospatase substrate from Sigma dissolved in 1M DEA. No background subtraction, data points are triplicates except for no ClfA where six data points were used. Human or salmon Fg was coated over-night and after blocking varying concentrations of ClfA was added to Fg.

[3] = tested on: S. aureus USA300 NARSA; experiment: Adherence of S. aureus USA300 NARSA to Fg coated microtiter plates (crystal violet, OD 590 nm); type: cell-based; conditions: 1 μg Fg/well, MRSA strain grown over-night in tryptic soy broth (FIG. 7)
Protocol: Microtiter plates were coated with 1 μg human or salmon Fg per well over-night at 4° C., followed by blocking with 5% bovine serum albumin in TBS-T (Tris-buffered saline with 0.05% Tween-20) in room temperature for about 1 hour. Two bacterial colonies (designated by 1 or 2 in FIG. 7) of S. aureus USA300 NARSA (an MRSA strain) were inoculated in tryptic soy broth at 37° C. over-night, washed and resuspended in PBS and various bacterial dilutions were incubated in the wells for 1 hour at room temperature. After washing in PBS, bound bacteria was fixed using 25% formaldehyde followed by 0.5% crystal violet stain. After PBS washing, 10% acetic acid was added and bound color was measured by crystal violet staining and optical density read at 590 nm in a microtiter plate reader.

Substance	Kd [1] [µM]	binding to ClfA229-545 ([1]; ITC, in solution (FIGS. 3A and 3B))	binding of ClfA N2N3 to coated Fg [2]	binding (adherence) of S. aureus USA300 to coated Fg [3]
GEGQQHHLGGAKQAGDV [human 17-mer peptide]	23	–	–	–
GQQHHLGGAKQAGDV [human 15-mer peptide]	40	binds to ClfA	–	–
human Fg: human fibrinogen	–	–	dose-dependent binding	bound
